According to US20080107619A1, “Carbohydrate based cellulase inhibitors as feeding stimulants in termites” (University of Florida Research Foundation, Inc., priority 2006, published 2008):
“Also recorded” adds a separate entry of the source.

How the values were obtained:
[1] = tested on: R. flavipes worker termites; assay: Validative feeding bioassays with mono- and di-saccharides; assay type: in vivo; details: no-choice tests; concentrations tested 0.004-3.0% wt/wt; FIG. 12A
R. flavipes = details: choice tests; Waller et al.; cited from earlier work
R. virginicus = details: choice tests; Waller et al.; cited from earlier work
[2] = tested on: Formosan Subterranean Termite β-glucosidases; details: after feeding; Zhu et al.; cited from earlier work

| SMILES | feeding stimulation [1] | consumption of treated paper substrates versus untreated controls (R. flavipes) | consumption of treated paper substrates versus untreated controls (R. virginicus) | inhibition [2] |
| --- | --- | --- | --- | --- |
| OC[C@H]1O[C@H](O[C@H]2[C@H](O)[C@@H](O)C(O)O[C@@H]2CO)[C@H](O)[C@@H](O)[C@@H]1O (mixture of isomers) [maltose] | generally a feeding deterrent; also recorded: no significant feeding stimulation | – | – | – |
| OC[C@H]1O[C@@](CO)(O[C@H]2O[C@H](CO)[C@@H](O)[C@H](O)[C@H]2O)[C@@H](O)[C@@H]1O [sucrose] | – | consumed more paper substrates | consumed more paper substrates | – |
| COc1cc(C=CC(=O)O)cc(OC)c1O (stereo in doubt) [sinapinic acid] | – | – | – | completely ineffective |
| O=C[C@H](O)[C@@H](O)[C@H](O)CO [xylose] | – | consumed more paper substrates | consumed more paper substrates | – |
| O=C[C@H](O)[C@@H](O)[C@H](O[C@@H]1O[C@H](CO)[C@@H](O)[C@H](O)[C@H]1O)[C@H](O)CO [cellobiose] | no significant feeding stimulation | – | – | – |
